These results are taken from US4496584A, “Amidine derivatives with anti-complement activity” (Torii & Co. Ltd., priority 1981, dated 1985).

In general, LD50 refers to the dose at which mortality reaches 50%. Usually inhibition stands for the relative decrease from the control value, in per cent.

Series [1] deals with T1, trypsin (Bos taurus, UniProt P00760).
T1 sequence (P00760 24-246): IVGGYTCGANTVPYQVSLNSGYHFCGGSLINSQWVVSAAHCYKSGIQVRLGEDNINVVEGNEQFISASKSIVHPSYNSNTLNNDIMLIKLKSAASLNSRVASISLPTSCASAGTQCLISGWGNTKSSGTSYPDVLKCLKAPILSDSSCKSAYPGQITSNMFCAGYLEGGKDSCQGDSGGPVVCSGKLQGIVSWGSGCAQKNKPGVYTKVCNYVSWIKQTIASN
Nature of the series: Enzyme inhibition, TAME hydrolysis, trypsin (method of Muramatsu et al.). Format: biochemical. The settings on record: for IC50: hydrolysis of TAME, read-out: ID50, trypsin. The procedure: (§1) The enzyme inhibitory activity was determined according to the method of Muramatsu et al. [M. Muramatsu, T. Onishi, S. Makino, Y. Hayashi and S. Fujii, J. Biochem., 58, 214 (1965)]. The data summarized in Table 1 are expressed in terms of molar concentration (ID50) of the test compound which inhibits 50% of the activity of each enzyme to hydrolyze TAME (tosylarginine methyl ester).

Series [2] concerns the target plasmin (Homo sapiens, UniProt P00747). Nature of the series: Enzyme inhibition, TAME hydrolysis, plasmin (method of Muramatsu et al.). Format: biochemical. The following applies: read-out: ID50, plasmin. The procedure: as §1
Series [3] concerns the target kallikrein. Nature of the series: Enzyme inhibition, TAME hydrolysis, kallikrein (method of Muramatsu et al.). Format: biochemical. The following applies: for IC50: read-out: ID50, kallikrein. The procedure:
as §1

In series [4] the target is thrombin (Bos taurus, UniProt P00735). Nature of the series: Enzyme inhibition, TAME hydrolysis, thrombin (method of Muramatsu et al.). Format: biochemical. The procedure: as §1
Series [5] addresses T2, Clr (Homo sapiens, UniProt P00736).
T2 sequence (P00736 464-705 limits assumed): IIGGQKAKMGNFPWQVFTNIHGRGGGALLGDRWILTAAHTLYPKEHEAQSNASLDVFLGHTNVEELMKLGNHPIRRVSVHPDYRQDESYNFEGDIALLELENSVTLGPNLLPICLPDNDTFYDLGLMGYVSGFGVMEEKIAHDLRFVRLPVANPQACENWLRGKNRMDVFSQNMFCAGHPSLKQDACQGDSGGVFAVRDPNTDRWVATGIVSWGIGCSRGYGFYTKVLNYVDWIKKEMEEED
T2 sequence (P00736 18-463 partner limits assumed): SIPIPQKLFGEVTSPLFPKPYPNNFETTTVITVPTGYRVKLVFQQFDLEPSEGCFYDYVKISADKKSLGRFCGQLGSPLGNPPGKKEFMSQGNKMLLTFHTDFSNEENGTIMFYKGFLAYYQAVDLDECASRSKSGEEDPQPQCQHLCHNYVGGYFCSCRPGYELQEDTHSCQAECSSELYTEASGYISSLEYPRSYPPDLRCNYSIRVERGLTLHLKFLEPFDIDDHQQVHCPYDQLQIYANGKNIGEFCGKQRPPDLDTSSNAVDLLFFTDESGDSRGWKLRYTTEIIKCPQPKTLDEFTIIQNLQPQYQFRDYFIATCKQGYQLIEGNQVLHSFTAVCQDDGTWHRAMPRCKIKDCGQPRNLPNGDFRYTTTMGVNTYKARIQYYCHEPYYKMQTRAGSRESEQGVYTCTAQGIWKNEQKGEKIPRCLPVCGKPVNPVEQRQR
Nature of the series: Anti-Cl esterase activity, Clr (AAME hydrolysis, method of Okamura et al.). Format: biochemical. The settings on record: read-out: Anti-C1 activity, Clr (ID50). The procedure:
(§2) The anti-Cl esterase (Clr, Cls) activity was determined according to the method of Okamura et al. [K. Okamura, M. Muramatsu and S. Fujii, Biochem. Biophys. Acta, 295, 252-257 (1973)]. The inhibition of complement mediated hemolysis (percent) was determined according to the method of Baker et al. [B. R. Baker and E. H. Erickson, J. Med. Chem., 12, 408-414 (1969)]. The figures in Table 2 have the following meanings:
Clr: Molar concentration of the test compound which inhibits 50% of the ability of Clr to hydrolyse AAME (acetylarginin methyl ester) (ID50).

Series [6] concerns the target T3, Cls (Homo sapiens, UniProt P09871).
T3 sequence (P09871 438-688 limits assumed): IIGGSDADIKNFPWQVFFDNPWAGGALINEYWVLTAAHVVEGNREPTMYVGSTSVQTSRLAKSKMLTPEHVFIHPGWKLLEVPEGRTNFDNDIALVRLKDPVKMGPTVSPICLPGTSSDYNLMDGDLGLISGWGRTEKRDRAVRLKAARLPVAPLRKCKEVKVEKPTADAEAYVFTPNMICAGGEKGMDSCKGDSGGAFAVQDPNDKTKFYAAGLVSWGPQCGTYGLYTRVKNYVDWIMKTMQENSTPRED
T3 sequence (P09871 16-437 partner limits assumed): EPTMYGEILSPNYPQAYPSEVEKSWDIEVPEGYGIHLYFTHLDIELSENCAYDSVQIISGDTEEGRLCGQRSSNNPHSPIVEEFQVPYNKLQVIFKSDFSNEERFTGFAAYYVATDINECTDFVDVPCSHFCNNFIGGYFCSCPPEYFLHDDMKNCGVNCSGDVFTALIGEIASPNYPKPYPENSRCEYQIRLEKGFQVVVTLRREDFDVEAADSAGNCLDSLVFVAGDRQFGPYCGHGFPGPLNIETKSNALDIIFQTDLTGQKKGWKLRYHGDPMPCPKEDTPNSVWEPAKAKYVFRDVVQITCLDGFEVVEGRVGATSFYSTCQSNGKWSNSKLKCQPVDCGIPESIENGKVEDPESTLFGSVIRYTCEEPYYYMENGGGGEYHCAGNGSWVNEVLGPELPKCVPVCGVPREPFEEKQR
As to the kind of experiment: Anti-Cl esterase activity, Cls (ATEE hydrolysis, method of Okamura et al.). Format: biochemical. The settings on record: read-out: Anti-C1 activity, Cls (ID50). On the procedure:
as §2
Cls: Molar concentration of the test compound which inhibits 50% of the ability of Cls to hydrolyse ATEE (acetyltyrosin ethyl ester) (ID50).

In series [7] the test system is complement mediated hemolysis. Nature of the series: Inhibition of complement mediated hemolysis (method of Baker et al.). Format: cell-based.
The nature of series [8]: Toxicity, lethal dose (LD50). The settings on record: mouse, in vivo.
Series [9] deals with Forssman shock. As to the kind of experiment: Forssman shock, time elapsed until death. Format: in vivo, guinea pig. The settings on record: 5 minutes before hemolysin. On the procedure:
The experiment was performed according to the method of I. G. Offerness et al. [Biochem. Pharmacol., 27 (14), 1873-1878 (1978)]. Male Hartlay guinea pig of about 300 g in body weight was used. Each guinea pig of the control group was administered intravenously with 0.5 ml (minimum dose to cause the shock) of hemolysin (commercial hemolysin, 5,000 U as assayed by the method of Ogata) and the time elapsed until death was observed. For the test group, each guinea pig was administered intravenously with the test compound 5 minutes before the administration of hemolysin and the time (second) elapsed until death was observed.

Several values for one entry are separate records, joined by “and”; a condition that tells them apart may be missing. Equal entries are not always repeated. Where two headings read alike, the source gives them in different places.

Chain of plasmin (P00747 581-810 limits assumed): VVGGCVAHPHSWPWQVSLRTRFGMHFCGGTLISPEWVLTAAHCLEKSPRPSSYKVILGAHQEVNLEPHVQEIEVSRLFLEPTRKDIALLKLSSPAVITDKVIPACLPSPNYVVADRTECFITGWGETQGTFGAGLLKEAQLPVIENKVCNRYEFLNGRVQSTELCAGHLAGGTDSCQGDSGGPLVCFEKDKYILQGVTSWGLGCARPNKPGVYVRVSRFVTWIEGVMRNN
Chain of plasmin (P00747 97-580 partner limits assumed): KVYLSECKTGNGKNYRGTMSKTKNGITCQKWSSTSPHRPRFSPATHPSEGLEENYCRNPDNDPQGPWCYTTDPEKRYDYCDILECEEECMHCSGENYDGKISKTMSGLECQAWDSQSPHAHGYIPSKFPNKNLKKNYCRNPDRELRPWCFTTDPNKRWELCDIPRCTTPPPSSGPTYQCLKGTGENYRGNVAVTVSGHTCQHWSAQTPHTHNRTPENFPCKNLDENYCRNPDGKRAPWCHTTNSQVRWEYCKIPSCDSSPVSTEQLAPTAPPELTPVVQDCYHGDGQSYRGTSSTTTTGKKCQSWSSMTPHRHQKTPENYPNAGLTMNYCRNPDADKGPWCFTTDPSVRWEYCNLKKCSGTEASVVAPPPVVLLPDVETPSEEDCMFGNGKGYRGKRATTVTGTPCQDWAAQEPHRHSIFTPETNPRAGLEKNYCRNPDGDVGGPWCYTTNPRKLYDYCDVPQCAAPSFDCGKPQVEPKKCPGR

As to `CC(=O)Oc1ccc2cc(C(=N)N)ccc2c1` [Compound No. 1, 6-amidino-2-naphthyl acetate], the IC50 in series [1] stood at 80 µM; in [2], 200 µM; in series [3], 500 µM; in series [4] it was 400 µM; in series [5], 10 µM; in series [6], 20 µM. Moreover, the “Inhibition of complement mediated hemolysis (%)” value (“Inhibition … (%)” below) is 86% in series [7] (concentration 1 × 10^-4), 15% in series [7] (concentration 1 × 10^-5), 0% in [7] (concentration 1 × 10^-6) and 0% in series [7] (concentration 1 × 10^-7). Further, the LD50 was 200 mg/kg in [8] (ip, read-out: LD50 Mouse IP) and 2500 mg/kg in series [8] (po, read-out: LD50 Mouse PO).

As to `CCCC(=O)Oc1ccc2cc(C(=N)N)ccc2c1` [Compound No. 2, 6-amidino-2-naphthyl n-butyrate], the IC50 in series [1] was found to be 20 µM; in series [2] it was 30 µM; in series [3], 700 µM; in [4] it was 20 µM; in series [5], 9 µM; in series [6] it was 20 µM. The “Inhibition … (%)” value amounted to 96% in series [7] (concentration 1 × 10^-4), 40% in series [7] (concentration 1 × 10^-5), 1% in series [7] (concentration 1 × 10^-6) and 0% in [7] (concentration 1 × 10^-7). Also, the LD50 in [8] (ip, read-out: LD50 Mouse IP) is 200 mg/kg; in series [8] (po, read-out: LD50 Mouse PO), 2500 mg/kg.

For the compound `N=C(N)c1ccc2cc(OC(=O)[C@H]3CC[C@H](CN)CC3)ccc2c1` [Compound No. 20, 6-amidino-2-naphthyl trans-4-aminomethylcyclohexanecarboxylate], the inhibition at 10 µM in series [1] (read-out: percentage inhibition, trypsin (figure in parentheses)) came out at 28%. Besides, the IC50 in [2] was greater than 10 µM; in series [4], greater than 10 µM; in series [5], 5 µM; in [6], 4 µM. Also, the “percentage inhibition, kallikrein (figure in parentheses)” value in series [3] (1×10^-5 M) is listed as 38%. Also, the “Inhibition … (%)” value in [7] (concentration 1 × 10^-4) turned out to be 100%; in series [7] (concentration 1 × 10^-5), 99%; in series [7] (concentration 1 × 10^-6), 80%; in series [7] (concentration 1 × 10^-7) it was 12%. For the same compound, in series [9] (1.0 mg/kg intravenously, average of 6, control average 428), the “time elapsed until death, Average” value worked out at 442 s. The “time elapsed until death” value in series [9] (1.0 mg/kg intravenously, individual animals 1-6) is 360 s and 365 s and 325 s and 620 s and 650 s. Also, in [9] (3.0 mg/kg intravenously, individual animals 1-6, ditto mark = Survival), the “time elapsed until death / survival” value is “Survival”. In addition, the LD50 in series [8] (ip, read-out: LD50 Mouse IP) worked out at 175 mg/kg; in [8] (po, read-out: LD50 Mouse PO), 2000 mg/kg.
